From patent publication US20150265656A1, “HUMAN ENDOCRINE PROGENITORS FROM ADULT PANCREATIC TISSUE” (THE JOHNS HOPKINS UNIVERSITY, priority 2012, published 2015) come the findings set out here.

Peptide text beside a SMILES is read from it. * marks the point of attachment. Cbz = O=C(OCc1ccccc1)*

One assay has as its system HES1 mRNA. Put plainly: HES1 mRNA level in cultured pancreatic tissue (quantitative RT-PCR). The format is cell-based, human. The note with it: 4 days of culture. On the procedure:
(§1) Human cadaveric pancreas tissue that had been enzymatically digested and subjected to density centrifugation (57) was received 2-3 days post mortem. In all experiments, stated replication refers to the number of cultures from individual organ donors unless otherwise defined. Islet purity varied between preparations from <10% to >90%. Pancreatic tissue was resuspended in 10 ml Miami Media 1A (Mediatech) supplemented with freshly prepared 0.01 g/L glutathione and cultured in low adhesion dishes at 37° C. for 4 days. Media was replaced every 2-3 days. […]
(§2) Human adult and fetal pancreas RNA was commercially prepared. […] Levels of HES 1, PTF1A, PDX1, NGN3 and CYCLOPHILLIN A were determined by using Taqman® gene expression assays Hs00172878_m1, Hs00603586_g1, Hs00426216_m1, Hs00360700_g1 and Hs99999904_m1, respectively. Mean levels (6 readings/sample) of genes of interest were normalized to mean levels of CYCLOPHILLIN A. MicroRNAs hsa-mir-15a, hsa-mir-15b, hsa-mir-16 and hsa-mir-195 levels were measured using sequence specific reverse transcriptase primers and TaqMan® detection reagents (Applied Biosystems). Mean levels (6 readings/sample) of miRNAs were normalized to mean levels of 18S rRNA (Applied Biosystems Ribosomal RNA Reagent). Significance of RTPCR data was determined by ANOVA with Bonferroni-Holm Post hoc testing.

Another assay concerns NGN3 mRNA. Put plainly: NGN3 mRNA level in cultured pancreatic tissue (quantitative RT-PCR). The format is cell-based, human. The note with it: 4 days of culture. As to the method: as §1, §2
In a further assay the test system is PTF1A mRNA. As to the kind of experiment: PTF1A mRNA level in cultured pancreatic tissue (quantitative RT-PCR). The format is cell-based, human. Conditions: 4 days of culture. On the procedure:
as §1, §2

Assay [1] relates to NGN3+ cells in cultured adult human pancreatic tissue. Put plainly: % NGN3+ nuclei/cells in cultured pancreatic tissue (immunostaining). The assay is classed as cell-based. On the procedure: Human cadaveric pancreas tissue that had been enzymatically digested and subjected to density centrifugation (57) was received 2-3 days post mortem. In all experiments, stated replication refers to the number of cultures from individual organ donors unless otherwise defined. Islet purity varied between preparations from <10% to >90%. Pancreatic tissue was resuspended in 10 ml Miami Media 1A (Mediatech) supplemented with freshly prepared 0.01 g/L glutathione and cultured in low adhesion dishes at 37° C. for 4 days. Media was replaced every 2-3 days. Inhibition of γ-secretase was carried out by daily addition of N—[N-(3,5-Difluorophenacetyl-L-alanyl)]-S-phenylglycine t-butyl ester (DAPT, Tocris Biosciences) or 7-Amino-4-chloro-3-methoxyisocoumarin (JLK6, EMD Biosceinces). JAG-1 (ANASPEC), a 17-residue polypeptide corresponding to amino acids 188-204 of the Jagged-1 Notch ligand (58) and a negative control polypeptide comprised of scrambled JAG-1 amino acids were used at 47 μM. A second Notch ligand, Delta-like ligand 4 (D114)(R&D Systems) was used at 500 ng/ml. Inhibition of proteasome degradation was carried out with N-[(Phenylmethoxy)carbonyl]-L-leucyl-N-[(1S)-1-formyl-3-methylbutyl]-L-leucinamide (MG132, Tocris Bioscience) and (2R,3S,4R)-3-Hydroxy-2-[(1S)-1-hydroxy-2-methylpropyl]-4-methyl-5-oxo-2-pyrrolidinecarboxy-N-acetyl-L cysteine thioester (clasto-lactacystin beta-lactone, Tocris Bioscience). Inhibition of EGF receptor kinase was carried out with N-(3-Chlorophenyl)-6,7-dimethoxy-4-quinazolinanine hydrochloride (AG1478, Tocris Bioscience) and with N-(3-Chlorophenyl)-6,7-dimethoxy-4-quinazolinanine hydrochloride (Erlotinib, Cayman Chemical). STAT3 activation was blocked with a cell-permeable analog of the STAT3-SH2 domain-binding phosphopeptide (PpYLKTK-mts, EMD Biosciences).
Tissues stained for NGN3 expression were sectioned and stained as soon as possible after harvest. Freshly sectioned 5-8 micron frozen sections of islet preparation tissue were fixed for 5 min. in 4% paraformaldehyde (PFA) prepared in phosphate buffered saline (PBS), quenched for 5 min in 50 mM glycine in PBS then blocked in 5% donkey serum, 1% BSA in PBS for 30 min. at room temperature. 0.1 to 0.2% Triton-X100 was included for cytoplasmic and nuclear antigens, respectively. Primary antibodies were diluted in blocking buffer; mouse anti-CD133/1 (IgG1) and CD133/2 (IgG2b) unconjugated and conjugated to phycoerythrin (Miltenyi Biotec), mouse anti-cytokeratin 19 (CK19, Chemicon), guinea pig anti-swine insulin (Dako), rabbit anti-CPEP (LINCO), mouse anti-GLU (R&D Systems), goat anti-PDX1 (gift from Chris Wright), mouse anti-CgA (Dako); goat anti-amylase (AMY, Santa Cruz), mouse anti-NGN3 (Developmental Studies Hybridoma Bank, Iowa City, Iowa, hybridoma supernatant), rabbit anti-cleaved caspase-3 (Cell Signaling Technology), rabbit Ki67 (abcam), mouse anti-human E-cadherin (Invitrogen). BrdU and EdU detection were by kit from BD Bioscience and Invitrogen, respectively. Quantitative analysis of protein expression on frozen sections was carried out by imaging >800 nuclei in randomly selected fields for each treatment group. For analysis of CD133+ cells immediately after preparative fluorescent activated cell sorting (FACS), cells were immobilized, fixed and quenched directly on glass slides using a cytospin. For identification and quantification cells within pancospheres, spheres were fixed and stained similarly to tissue sections except all incubations and washes were overnight at 4° C. Stained pancospheres were mounted on coverslipped glass slides. For quantitative analyses, unbiased stereology (Stereo Investigator software) was used to estimate number of nuclei per pancosphere. Sectioned tissue and pancospheres were imaged by confocal microscopy through the Z-axis in a series of 1 micron optical sections using sequential acquisition mode. […] Mean % CPEP, % GLU and % CgA were calculated from a total of 17 pancospheres.

Assay [2] deals with pancospheres from CD133+/NGN3+ cells. Put plainly: Pancosphere endocrine maturation, hormone-expressing cells. The format is cell-based, human. Conditions: maturation media with 10 μM MPA. On the procedure: To form pancospheres, CD133+ cells were resuspended at 2×10^5 cells/ml in HuES media [Knockout DMEM (Invitrogen), 10% Knockout Serum Replacement (Invitrogen), 10% Albumax, 10 ng/ml fibroblast growth factor 2 (FGF2), 1×Na pyruvate, and 1× non-essential amino acids] conditioned by overnight incubation on human SDEC cells (59, 60) and 1-2% Matrigel. Media was supplemented every 3-4 days for up to 21 days. Media was then changed to Maturation media [RPMI 1640, 0.5% BSA, 10 mM nicotinamide, 50 ng/ml human insulin like growth factor II (IGF II, R&D Systems)] for 7 days with addition of fresh nicotinamide and IGF II every 2 days without media change. IGF II was then slowly withdrawn by subsequent 50% media changes. […]
Tissues stained for NGN3 expression were sectioned and stained as soon as possible after harvest. […] Quantitative analysis of protein expression on frozen sections was carried out by imaging >800 nuclei in randomly selected fields for each treatment group. […] For identification and quantification cells within pancospheres, spheres were fixed and stained similarly to tissue sections except all incubations and washes were overnight at 4° C. […] For quantitative analyses, unbiased stereology (Stereo Investigator software) was used to estimate number of nuclei per pancosphere. […] Mean % CPEP, % GLU and % CgA were calculated from a total of 17 pancospheres.

With `C[C@H](NC(=O)Cc1cc(F)cc(F)c1)C(=O)N[C@H](C(=O)OC(C)(C)C)c1ccccc1` [DAPT, N—[N-(3,5-Difluorophenacetyl-L-alanyl)]-S-phenylglycine t-butyl ester], the “level of HES1 mRNA, % of carrier control” value in the assay with HES1 mRNA (2 μM DAPT) is 63.0%±3.3; in the assay with HES1 mRNA (20 μM DAPT) it was 55.4%±1.5. Besides, the “level of NGN3 mRNA, % of carrier control” value in the assay on NGN3 mRNA (2 μM DAPT) is recorded as 927.4%±52.6; in the assay on NGN3 mRNA (20 μM DAPT), 1886.3%±102.4. In addition, the “level of PTF1A mRNA, % of carrier control” value in the assay with PTF1A mRNA (2 μM DAPT) is 331.2%±10.8; with PTF1A mRNA (20 μM DAPT) it was 391.6%±28.8. Moreover, the “% of cells expressing NGN3 protein, % of carrier control” value in assay [1] (2 μM DAPT, 4 days) is 124%±1.1; in assay [1] (20 μM DAPT, 4 days) it was 152.0%±2.2. In addition, the “effect on the D114-induced decrease of % NGN3+ cells” value in assay [1] (DAPT together with D114) is recorded as “blocked”.

In the case of “D114: Notch ligand Delta-like ligand 4 (R&D Systems)”, the “% of NGN3+ cells, percent of carrier control” value in assay [1] (500 ng/ml, data not shown) is reported as 60.1%±11.4.

For `COc1c(C)c2c(c(O)c1C/C=C(\C)CCC(=O)O)C(=O)OC2` [MPA, Mycophenolic acid], the “% cells GLU+ in pancospheres” value in assay [2] (carrier control 0.58%±0.2, P>0.05) is reported as 1.1%±0.23. The “% cells CPEP+ in pancospheres” value in assay [2] (carrier control 1.0±0.3) is on record as 2.9%±0.4.

In the case of `C#Cc1cccc(Nc2ncnc3cc(OCCOC)c(OCCOC)cc23)c1` [Erlotinib], the “% NGN3+ cells” value in assay [1] (0.25 μM Erlotinib, n=1, data not shown) stood at 31.0±4.8.

`COc1oc(=O)c2cc(N)ccc2c1Cl` [JLK6, 7-Amino-4-chloro-3-methoxyisocoumarin]: the “effect on % of cells expressing NGN3 protein” value in assay [1] (JLK6 treatment, 4 days) is listed as “No significant effect”.

Regarding “JAG-1 peptide: 17-residue polypeptide corresponding to amino acids 188-204 of the Jagged-1 Notch ligand (DDYYYGFGCNKFCRPRD; UniProt P78504 188-204, looked up, fragment)”, in assay [1] (47 μM, 4 days), the “% of cells expressing NGN3 protein, % of cells treated with scrambled peptide (SJAG)” value is 39.0%±6.5.

“EGF: EGF receptor ligand added to culture (NSDSECPLSHDGYCLHDGVCMYIEALDKYACNCVVGYIGERCQYRDLKWWELR; Epidermal growth factor; UniProt P01133 971-1023, looked up)”: in assay [1] (addition of EGF 20 ng/ml), the “change of % NGN3+ cells” value is reported as “failed to significantly change”.

For “TGFα: EGF receptor ligand added to culture”, in assay [1] (addition of TGFα 40 ng/ml), the “change of % NGN3+ cells” value was “failed to significantly change”.

As to `COc1cc2ncnc(Nc3cccc(Cl)c3)c2cc1OC.Cl` [AG1478, N-(3-Chlorophenyl)-6,7-dimethoxy-4-quinazolinanine hydrochloride], the “% NGN3+ cells, % of carrier control” value in assay [1] (3 nM AG1478, 4 days) is on record as 69.1%±7.3; in assay [1] (30 nM AG1478, 4 days), 62.3%±8.2.

For `CC(C)C[C@@H](C=O)NC(=O)[C@H](CC(C)C)NC(=O)[C@H](CC(C)C)NC(=O)OCc1ccccc1` [MG132, N-[(Phenylmethoxy)carbonyl]-L-leucyl-N-[(1S)-1-formyl-3-methylbutyl]-L-leucinamide] (Cbz-Leu-Leu-Leu-aldehyde), the “% NGN3+ cells, % of carrier control” value is listed as 182.8%±14.9 in assay [1] (1 μM MG132, 4 days); 478.8%±33.6 in assay [1] (10 μM MG132, 4 days); 533.6%±28.9 in assay [1] (20 μM MG132, 4 days).
